Laboratory results from patent US20230391729A1, “SUCCINATE SALTS OF N-(3-(4-(3-(DIISOBUTYLAMINO)PROPYL)PIPERAZIN-1-YL)PROPYL)-1H-BENZO[D]IMIDAZOL-2-AMINE, PREPARATION THEREOF AND USE OF THE SAME” (ALZPROTECT, priority 2020, published 2023).

Columns and labels:
[1] = Solubility assessment in unbuffered water and pH buffers; assay type: physicochemical; conditions: solution in unbuffered water
Description: 100 μL of the appropriate buffer was added to form a slurry.

[2] = 7-day stability tests of the salt (XRPD, HPLC purity); assay type: physicochemical; conditions: for Purity (%) by HPLC after 7-day stability test: 7 days
Description: 7-day stability tests were carried out as follows: 15 mg of salt was weighed into x3 2 mL vials. The vials were then placed at 40° C./75% RH, 80° C. and under ambient light; after 1 week, the solids were analysed by XRPD and HPLC purity (method A).

[3] = tested on: dopaminergic (TH positive) neurons; test: Survival and neurite network of TH(+) mesencephalic neurons after MPP+ injury; assay type: cell-based, rat; conditions: MPP+ 4 μM 48 h; 50 nM dose
Description: Rat dopaminergic neurons were cultured as described by Visanji et al. in FASEB J. 2008, 22(7): 2488-2497 and Callizot et al., in Plos One 2019: https://doi.org/10.1371/journal.pone.0215277. Briefly, pregnant female rat (Wistar) of 15 days of gestation were killed using a deep anesthesia with CO2 chamber and a cervical dislocation. The midbrains obtained from 15-day-old rat embryos (Janvier, France) were dissected under a microscope. The embryonic midbrains were removed and placed in ice-cold medium of Leibovitz (L15) containing 2% of Penicillin-Streptomycin (PS) and 1% of BSA. The ventral portion of the mesencephalic flexure, a region of the developing brain rich in dopaminergic neurons, were used for the cell preparations. The midbrains were dissociated by trypsinization for 20 min at 37° C. (solution at a final concentration of 0.05% trypsin and 0.02% EDTA). The reaction was stopped by the addition of DMEM containing DNAase I grade II (0.5 mg/mL) and 10% of FCS. […] Viable cells were counted in a Neubauer cytometer using the trypan blue exclusion test. […]
The following read-outs were investigated: • neuron survival: total number of TH neurons (TH staining), • neurite network: total length of neurite network of TH positive neurons (in μm) • α-syn aggregation (area of overlapping between TH and α-syn staining in μm^2) […]

Substance: N-(3-(4-(3-(diisobutylamino)propyl)piperazin-1-yl)propyl)-1H-benzo[d]imidazol-2-amine sesqui-succinate salt [sesqui-succinate salt Form 1]
- pH measurement [1]: 5.28
- XRPD crystallinity or form after 7-day stability tests ([2]; 40° C./75% RH, 80° C. and ambient light): no change to crystallinity or form
- Purity (%) by HPLC after 7-day stability test ([2]; 40° C./75% RH): 98.5%
- Purity (%) by HPLC after 7-day stability test ([2]; 80° C.): 98.3%
- Purity (%) by HPLC after 7-day stability test ([2]; Ambient Light): 98.4%
- change in HPLC purity after 7-day stability test ([2]; each stability condition): no change in purity
- neurite network of TH positive neurons [3]: significantly improved
- neuron survival: total number of TH neurons [3]: neuroprotective
